# According to patent US20180093308A1, “METHANOGENESIS CONTROL DURING ENVIRONMENTAL APPLICATIONS USING ANTIMETHANOGENIC REAGENTS” (Innovative Environmental Technologies, Inc, priority 2016, published 2018):
# Tested on: Archaea
# Assay: Laboratory Study 4: methane concentration in control and test samples with AMRs
# Type: cell-based
# Method: Use of diallyl sulfide, which may be considered a synthetic garlic oil (GOS), was evaluated for its ability to control Archaea compared to the effects of other potential AMRs such as natural/pressed Garlic Oil (GO) and dehydrated Garlic Powder (GP). Control samples with and without contaminants were captured along with test samples that included contaminants and different concentrations (250 ppm and 500 ppm) of different AMRs (GO, GOS and GP). The concentration of methane in each of the samples was measured at 0, 9, 16 and 23 days.
smiles,measurement,setting,value
"C=CCSCC=C [GOS, diallyl sulfide]",control response in terms of methane production,"250 ppm and 500 ppm, 23 days incubation",best control response
same,length and magnitude of antimethanogenic responses,500 ppm lasting longer than 250 ppm,concentration dependent
